Test results as given in BindingDB's records for patent WO2025049746 (Eikon Therapeutics, 2025).

How the values were obtained:
[1] = biological target: T1, Bifunctional 3'-5' exonuclease/ATP-dependent helicase WRN [480-1251] (UniProt Q14191); test: Biochemical Activity Assays
T1 construct: 480-1251

[2] = biological target: Bifunctional 3'-5' exonuclease/ATP-dependent helicase WRN (Homo sapiens, UniProt Q14191); test: ADP-Glo Kinase Assay
Experimental: ATPase activity was measured using the ADP-Glo Kinase Assay following the manufacturers recommended protocol.

T1 sequence (Q14191 480-1251): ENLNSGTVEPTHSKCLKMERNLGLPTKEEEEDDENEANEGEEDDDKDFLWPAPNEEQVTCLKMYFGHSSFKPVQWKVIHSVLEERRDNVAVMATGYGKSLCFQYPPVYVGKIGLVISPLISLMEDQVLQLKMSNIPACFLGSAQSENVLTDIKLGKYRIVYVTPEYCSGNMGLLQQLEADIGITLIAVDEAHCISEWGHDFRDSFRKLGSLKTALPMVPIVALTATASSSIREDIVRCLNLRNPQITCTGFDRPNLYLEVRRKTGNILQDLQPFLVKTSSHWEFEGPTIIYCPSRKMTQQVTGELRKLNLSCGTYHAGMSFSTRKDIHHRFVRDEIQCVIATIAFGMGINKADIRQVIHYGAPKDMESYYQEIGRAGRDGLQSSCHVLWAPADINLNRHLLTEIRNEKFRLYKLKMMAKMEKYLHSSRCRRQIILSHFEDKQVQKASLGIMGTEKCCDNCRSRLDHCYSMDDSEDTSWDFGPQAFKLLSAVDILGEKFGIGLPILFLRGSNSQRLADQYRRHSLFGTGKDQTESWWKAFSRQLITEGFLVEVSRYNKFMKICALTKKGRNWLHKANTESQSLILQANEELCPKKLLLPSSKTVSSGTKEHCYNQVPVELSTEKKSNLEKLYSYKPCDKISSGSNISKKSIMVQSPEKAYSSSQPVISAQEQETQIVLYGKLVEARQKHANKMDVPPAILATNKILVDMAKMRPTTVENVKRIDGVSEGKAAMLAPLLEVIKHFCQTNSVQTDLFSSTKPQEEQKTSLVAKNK
Bifunctional 3'-5' exonuclease/ATP-dependent helicase WRN, sequence (Q14191 whole entry): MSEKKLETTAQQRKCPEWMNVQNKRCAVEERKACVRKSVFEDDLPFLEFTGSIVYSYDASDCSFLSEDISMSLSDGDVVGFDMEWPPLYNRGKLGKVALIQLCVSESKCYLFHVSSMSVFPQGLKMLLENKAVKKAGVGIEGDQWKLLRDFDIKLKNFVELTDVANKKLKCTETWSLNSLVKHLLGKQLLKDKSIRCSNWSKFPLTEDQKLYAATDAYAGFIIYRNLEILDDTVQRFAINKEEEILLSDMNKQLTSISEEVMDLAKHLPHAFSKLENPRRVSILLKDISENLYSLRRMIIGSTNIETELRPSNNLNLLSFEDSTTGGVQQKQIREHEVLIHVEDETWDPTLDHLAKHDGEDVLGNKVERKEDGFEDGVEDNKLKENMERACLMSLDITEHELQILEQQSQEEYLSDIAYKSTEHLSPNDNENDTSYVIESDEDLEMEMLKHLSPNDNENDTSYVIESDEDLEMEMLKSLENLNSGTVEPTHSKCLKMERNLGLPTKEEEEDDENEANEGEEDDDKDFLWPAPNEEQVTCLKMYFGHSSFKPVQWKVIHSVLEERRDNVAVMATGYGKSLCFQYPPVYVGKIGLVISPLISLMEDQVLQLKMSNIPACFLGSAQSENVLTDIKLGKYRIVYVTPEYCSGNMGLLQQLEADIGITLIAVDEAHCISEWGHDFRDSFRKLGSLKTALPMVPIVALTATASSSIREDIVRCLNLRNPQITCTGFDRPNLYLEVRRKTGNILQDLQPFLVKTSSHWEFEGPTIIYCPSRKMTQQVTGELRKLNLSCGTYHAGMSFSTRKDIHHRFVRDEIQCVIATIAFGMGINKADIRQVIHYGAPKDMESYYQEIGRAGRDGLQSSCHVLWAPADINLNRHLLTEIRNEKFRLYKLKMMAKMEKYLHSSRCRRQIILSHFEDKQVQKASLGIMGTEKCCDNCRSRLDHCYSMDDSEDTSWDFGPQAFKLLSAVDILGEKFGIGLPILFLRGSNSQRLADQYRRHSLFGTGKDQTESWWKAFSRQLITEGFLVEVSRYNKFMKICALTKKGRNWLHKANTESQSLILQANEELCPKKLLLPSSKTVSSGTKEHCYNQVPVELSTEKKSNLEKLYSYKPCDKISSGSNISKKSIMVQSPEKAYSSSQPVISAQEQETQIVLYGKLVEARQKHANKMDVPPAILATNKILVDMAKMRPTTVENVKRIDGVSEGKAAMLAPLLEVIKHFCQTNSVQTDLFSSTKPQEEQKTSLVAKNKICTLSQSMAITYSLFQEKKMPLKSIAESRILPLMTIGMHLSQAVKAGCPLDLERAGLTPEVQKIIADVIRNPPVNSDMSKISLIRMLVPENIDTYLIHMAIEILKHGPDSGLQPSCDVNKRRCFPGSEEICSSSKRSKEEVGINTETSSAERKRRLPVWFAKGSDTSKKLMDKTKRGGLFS

Row | Structure (SMILES) | IC50 [1] [nM] | IC50 [2] [nM]
1 | CCc1c(N2CCN(C(=O)c3ncnc(C)c3O)CC2)c(=O)n2nc(-c3cc(C(F)(F)F)c4ncccc4c3)nc2n1CC(=O)Nc1ccc(C(F)(F)F)cc1Cl [WO2025049746, Example 322] | 96 | 72
2 | CCc1c(N2CCN(C(=O)c3ncnc(C)c3O)CC2)c(=O)n2nc(-c3ccc4nc(C)ccc4c3)nc2n1CC(=O)Nc1ccc(C(F)(F)F)cc1Cl [WO2025049746, Example 323] | 28 | 26
3 | CCc1c(N2CCN(C(=O)c3ncnc(C)c3O)CC2)c(=O)n2nc(-c3ccc4c(c3)CCC(=O)N4C)nc2n1CC(=O)Nc1ccc(C(F)(F)F)cc1Cl [WO2025049746, Example 324] | 32 | 25
4 | CCc1c(N2CCN(C(=O)c3ncnc(C)c3O)CC2)c(=O)n2nc(-c3ccc4c(c3)CC(=O)N4)nc2n1CC(=O)Nc1ccc(C(F)(F)F)cc1Cl [WO2025049746, Example 325] | 34 | 25
5 | CCc1c(N2CCN(C(=O)c3ncnc(C)c3O)CC2)c(=O)n2nc(-c3ccn4ncc(F)c4c3)nc2n1CC(=O)Nc1ccc(C(F)(F)F)cc1Cl [WO2025049746, Example 326] | 26 | 24
6 | CCc1c(N2CCN(C(=O)c3ncnc(C)c3O)CC2)c(=O)n2nc(-c3coc4ccccc34)nc2n1CC(=O)Nc1ccc(C(F)(F)F)cc1Cl [WO2025049746, Example 327] | 56 | 30
7 | CCc1c(N2CCN(C(=O)c3ncnc(C)c3O)CC2)c(=O)n2nc(-c3cnc4[nH]cc(Cl)c4c3)nc2n1CC(=O)Nc1ccc(C(F)(F)F)cc1Cl [WO2025049746, Example 328] | 53 | 42
8 | CCc1c(N2CCN(C(=O)c3ncnc(C)c3O)CC2)c(=O)n2nc(-c3ccc(NS(N)(=O)=O)cc3)nc2n1CC(=O)Nc1ccc(C(F)(F)F)cc1Cl [WO2025049746, Example 329] | 25 | 21
9 | CCc1c(N2CCN(C(=O)c3ncnc(C)c3O)CC2)c(=O)n2nc(-c3ccc(OCC(=O)O)cc3)nc2n1CC(=O)Nc1ccc(C(F)(F)F)cc1Cl [WO2025049746, Example 330] | 33 | 25
10 | CCc1c(N2CCN(C(=O)c3ncnc(C)c3O)CC2)c(=O)n2nc(-c3ccc(NC(=O)NC)cc3)nc2n1CC(=O)Nc1ccc(C(F)(F)F)cc1Cl [WO2025049746, Example 331] | 26 | 20
11 | CCc1c(N2CCN(C(=O)c3ncnc(C)c3O)CC2)c(=O)n2nc(-c3ccc4nn(C5COC5)cc4c3)nc2n1CC(=O)Nc1ccc(C(F)(F)F)cc1Cl [WO2025049746, Example 332] | 45 | 44
12 | CCc1c(N2CCN(C(=O)c3ncnc(C)c3O)CC2)c(=O)n2nc(-c3ccc([S+](C)[O-])cc3)nc2n1CC(=O)Nc1ccc(C(F)(F)F)cc1Cl (stereo not drawn) [WO2025049746, Example 333] | 28 | 28
13 | CCc1c(N2CCN(C(=O)c3ncnc(C)c3O)CC2)c(=O)n2nc(-c3ccn4nc(OC(F)F)cc4c3F)nc2n1CC(=O)Nc1ccc(C(F)(F)F)cc1Cl [WO2025049746, Example 334] | 32 | 30
14 | CCc1c(N2CCN(C(=O)c3ncnc(C)c3O)CC2)c(=O)n2nc(-c3ccn4c(cc(=O)n4C(F)F)c3F)nc2n1CC(=O)Nc1ccc(C(F)(F)F)cc1Cl [WO2025049746, Example 335] | 58 | 64
15 | CCc1c(N2CCN(C(=O)c3ncnc(C)c3O)CC2)c(=O)n2nc(-c3cc(C)c4ncccc4c3)nc2n1CC(=O)Nc1ccc(C(F)(F)F)cc1Cl [WO2025049746, Example 336] | 60 | 53
16 | CCc1c(-c2cc3n(n2)CC(=O)N(C)C3)c(=O)n2nc(C3=CCOCC3)nc2n1CC(=O)Nc1ccc(C(F)(F)F)cc1Cl [WO2025049746, Example 338] | 29700 | 29700
17 | CCc1c(N2CCC(N(C)C(=O)c3ncnc(C)c3O)C2)c(=O)n2nc(C3=CCOCC3)nc2n1CC(=O)Nc1ccc(C(F)(F)F)cc1Cl (stereo not drawn) [WO2025049746, Example 339] | 2340 | 29700
18 | CCc1c(N2CCCN(C(=O)c3ncnc(C)c3O)CC2)c(=O)n2nc(C3=CCOCC3)nc2n1CC(=O)Nc1ccc(C(F)(F)F)cc1Cl [WO2025049746, Example 340] | 93 | 166
19 | CCc1c(N2CC[C@@H](C)N(C(=O)c3ncnc(C)c3O)CC2)c(=O)n2nc(C3=CCOCC3)nc2n1CC(=O)Nc1ccc(C(F)(F)F)cc1Cl [WO2025049746, Example 341] | 67 | 80
20 | CCc1c(N2CC[C@H](C)N(C(=O)c3ncnc(C)c3O)CC2)c(=O)n2nc(C3=CCOCC3)nc2n1CC(=O)Nc1ccc(C(F)(F)F)cc1Cl [WO2025049746, Example 342] | 420 | 1800
21 | CCc1c(N2CCN(C(=O)/C=C/C(=O)c3ccc(OC)cc3)CC2)c(=O)n2nc(C3=CCOCC3)nc2n1CC(=O)Nc1ccc(C(F)(F)F)cc1Cl [WO2025049746, Example 344] | 242 | 289
22 | CCc1c(N2CCCC3C2CCN3C(=O)c2ncnc(C)c2O)c(=O)n2nc(C3=CCOCC3)nc2n1CC(=O)Nc1ccc(C(F)(F)F)cc1Cl (stereo not drawn) [WO2025049746, Example 345] | 29700 | 7450
23 | CCc1c(N2CCC3C2CCCN3C(=O)c2ncnc(C)c2O)c(=O)n2nc(C3=CCOCC3)nc2n1CC(=O)Nc1ccc(C(F)(F)F)cc1Cl (stereo not drawn) [WO2025049746, Example 347] | 84 | 132
24 | CCc1c(N2CCN(C(=O)c3ncnc(C)c3O)CC2)c(=O)n2nc(-c3cccc4c3CCO4)nc2n1CC(=O)Nc1ccc(C(F)(F)F)cc1Cl [WO2025049746, Example 348] | 62 | 86
25 | CCc1c(N2CCN(C(=O)c3ncnc(C)c3O)CC2)c(=O)n2nc(C3=CCOCC3)nc2n1CC(=O)NC12CCC(C(F)(F)F)(CC1)CC2 [WO2025049746, Example 349] | 994 | 1950
26 | CCc1c(N2CCN(C(=O)c3ncnc(C)c3O)CC2)c(=O)n2nc(C3=CCOCC3)nc2n1CC(=O)NC1CC2C(C1)C2(F)F (stereo not drawn) [WO2025049746, Example 350] | 6000 | 6830
27 | CCc1c(N2CCN(C(=O)c3ncnc(C)c3O)CC2)c(=O)n2nc(C3=CCOCC3)nc2n1CC(=O)NC1CCC(F)(F)CC1 [WO2025049746, Example 351] | 3670 | 3960
28 | CCc1c(N2CCN(C(=O)c3ncnc(C)c3O)CC2)c(=O)n2nc(C3=CCOCC3)nc2n1CC(=O)NC12CC(C3CCC3)(C1)C2 [WO2025049746, Example 352] | 122 | 174
29 | CCc1c(N2CCN(C(=O)c3ncnc(C)c3O)CC2)c(=O)n2nc(C3=CCOCC3)nc2n1CC(=O)NC12CC(c3ccc(F)cc3)(C1)C2 [WO2025049746, Example 353] | 29700 | 6860
30 | CCc1c(N2CCN(C(=O)c3ncnc(C)c3O)CC2)c(=O)n2nc(C3=CCOCC3)nc2n1CC(=O)Nc1ccc(OC(F)(F)Cl)cc1Cl [WO2025049746, Example 355] | 39 | 49

Other lines, results leading:

Row | IC50 [1] [nM] | IC50 [2] [nM] | Structure (SMILES)
31 | 634 | 875 | CCc1c(N2CCN(C(=O)c3ncnc(C)c3O)CC2)c(=O)n2nc(C3=CCOCC3)nc2n1CC(=O)Nc1ccc(SC(F)(F)F)cc1 [WO2025049746, Example 356]
32 | 5200 | 4820 | CCc1c(N2CCN(C(=O)c3ncnc(C)c3O)CC2)c(=O)n2nc(C3=CCOCC3)nc2n1CC(=O)NC1CC2(C1)CC(F)(F)C2 [WO2025049746, Example 357]
33 | 148 | 232 | CCc1c(N2CCN(C(=O)c3ncnc(C)c3O)CC2)c(=O)n2nc(C3=CCOCC3)nc2n1CC(=O)NC12CC(C3CC3)(C1)C2 [WO2025049746, Example 359]
34 | 1990 | 2140 | CCc1c(N2CCN(C(=O)c3ncnc(C)c3O)CC2)c(=O)n2nc(C3=CCOCC3)nc2n1CC(=O)Nc1ccc(C(F)(F)F)c2cccnc12 [WO2025049746, Example 360]
35 | 29700 | 29700 | CCc1c(N2CCN(C(=O)c3ncnc(C)c3O)CC2)c(=O)n2nc(C3=CCOCC3)nc2n1CC(=O)NC12CC(CCC(F)(F)F)(C1)C2 [WO2025049746, Example 361]
36 | 615 | 1650 | CCc1c(N2CCN(C(=O)c3ncnc(C)c3O)CC2)c(=O)n2nc(C3=CCOCC3)nc2n1CC(=O)NC12CCC(C(F)(F)F)(CC1)C2 [WO2025049746, Example 362]
37 | 81 | 155 | CCc1c(N2CCN(C(=O)c3ncnc(C)c3O)CC2)c(=O)n2nc(C3=CCOCC3)nc2n1CC(=O)Nc1ccc(C(F)(F)F)cn1 [WO2025049746, Example 363]
38 | 30 | 36 | CCc1c(N2CCN(C(=O)c3ncnc(C)c3O)CC2)c(=O)n2nc(C3=CCOCC3)nc2n1CC(=O)Nc1ccc(SC(F)(F)F)cc1Cl [WO2025049746, Example 364]
39 | 44 | 63 | CCc1c(N2CCN(C(=O)c3ncnc(C)c3O)CC2)c(=O)n2nc(C3=CCOCC3)nc2n1CC(=O)Nc1ccc(C(F)(F)F)c2cccnc12 [WO2025049746, Example 365]
40 | 2540 | 4200 | CCc1c(N2CCN(C(=O)c3ncnc(C)c3O)CC2)c(=O)n2nc(C3=CCOCC3)nc2n1CC(=O)NC1CC2(C1)CC2(F)F (stereo not drawn) [WO2025049746, Example 366]
41 | 8510 | 29700 | CCc1c(N2CCN(C(=O)c3ncnc(C)c3O)CC2)c(=O)n2nc(C3=CCOCC3)nc2n1CC(=O)Nc1ccc(C(F)(F)F)n(C)c1=O [WO2025049746, Example 367]
42 | 30 | 36 | CCc1c(N2CCN(C(=O)c3ncnc(C)c3O)CC2)c(=O)n2nc(C3=CCOCC3)nc2n1CC(=O)Nc1ccc(C(F)(F)F)c2scnc12 [WO2025049746, Example 368]
43 | 77 | 85 | CCc1c(N2CCN(C(=O)c3ncnc(C)c3O)CC2)c(=O)n2nc(C3=CCOCC3)nc2n1CC(=O)Nc1ccc(OC(F)F)cc1F [WO2025049746, Example 369]
44 | 161 | 163 | CCc1c(N2CCN(C(=O)c3ncnc(C)c3O)CC2)c(=O)n2nc(C3=CCOCC3)nc2n1CC(=O)Nc1ccc(OC(F)F)cc1Cl [WO2025049746, Example 370]
